US10662225B2, “Backbone cyclized inhibitory peptides of myeloid differentiation factor 88 (MyD88)” (Yissum Research Development Company of the Hebrew …, priority 2016, dated 2020)
Entries after “also recorded” stand apart in the source; their conditions may differ. Numbered stars: 1 amine (or outer) side, 2 acyl side, 3 side chain; on linkers, the order of the positions; unused ones are H or OH. Bridge positions count the residues as written; N and C are the ends. Square brackets hold non-standard residues; d marks the D form. Peptide text beside a SMILES is read from it. CO = O=C([*:1])[*:2]; Nlys = NCCCCNCC(=O)O

Experiments:
[1] = target: T1, MyD88 TIR domain (Homo sapiens, UniProt Q99836); experiment: Competition assay: binding of biotinylated linear BB loop peptide to MyD88 TIR domain; details: different concentrations
T1 construct: made in house
Method: FIG. 9. 4×4MyDI binds to the BB loop region of the MyD88 TIR domain. A 96 well plate was coated with recombinant MyD88 (8 μg/ml) in coating buffer vs. buffer alone, and wells were blocked with 1% BSA. Biotinylated linear peptide was added to all wells (125 μg/ml) followed by streptavidin-HRP and substrate. The signal of linear peptide bound to its target was inhibited by incubation with the 4×4MyDI (*P<0.05) but not by incubation with the scrambled version of the linear peptide (SEQ ID NO: 5).
The ability of the 4×4MyDI compound to bind to the target region (the BB loop) of the MyD88 TIR domain, was evaluated using a newly-designed assay. For this goal a competition assay was established that tests the ability of the 4×4MyDI compound to prevent the binding of the biotinylated linear BB loop peptide to the MyD88 TIR domain. The MyD88 TIR domain was produced as a recombinant protein fused to the SUMO3 protein (Accession # NP_008867), purified, and attached to a 96 well plate. Binding of biotinylated RDVLPGT (SEQ. ID NO: 1) peptide was detected using streptavidin conjugated to horse radish peroxidase (HRP) followed by the addition of HRP substrate.

[2] = test system: MyD88-dependent signaling; experiment: TNFα production by THP-1 derived macrophages stimulated with PAM3csk; type: cell-based, human; details: THP-1 macrophages, PAM3csk overnight
Method: FIG. 5. Human monocytic THP-1 cells were differentiated to macrophages and were stimulated with PAM3csk overnight in the absence or presence of the cyclic 4-carbon bridge peptide or 6-carbon bridge peptide. TNFα levels in the supernatants were determined by ELISA.
Both cyclic peptides were synthesized with the addition of a tryptophan group to the N-terminus to enable accurate quantification of the molecules.

[3] = Parallel Artificial Membrane Permeability Assay (PAMPA); type: in vitro ADME; details: in comparison to metoprolol
Description: FIG. 12. Papp of 4×4MyDI in the PAMPA model in comparison to metoprolol.

[4] = test system: CaCO-2 monolayer
Method: Transport studies are performed through the CaCO-2 monolayer (passage range of 52-60) seeded at density of 25×10^5 cells/cm^2 on untreated culture inserts of polycarbonate membrane with 0.4 μm pores and surface of 1.1 cm^2. The culture inserets containing Caco-2 monolayers were place in 24 transwell plates 12 mm, Costar™. The cells were monitored for their transepithelial electrical resistance (TEER) measurements to assure TEER between 300 and 500 Ω*cm^2. […] HBSS supplemented with 10 mM MES and adjusted to pH 6.5 will be used as transport medium in the donor compartment and pH 7.4 in the acceptor compartment. The donor solution contains the test compound.
The investigation of the permeability of 4×4MyDI through CaCO-2 monolayer includes using two main control groups, Atenolol and Metoprolol that show passive para-cellular and trans-cellular permeability, respectively. The CaCO-2 model allows investigating the mechanism of absorption, so the permeability from apical to basolateral membranes (AB) can be measured to evaluate the total permeability. The permeability from basolateral to apical membranes (BA) can also be measured and compared to AB P apparent (Papp) to determine if the absorption is though passive diffusion, active transporters or if there is involvement of efflux systems.

[5] = Metabolic stability in plasma with Brush Border Membrane Vesicles (BBMV); type: in vitro ADME; details: human; over two hours; read-out: decrease of amount in plasma enriched with BBMV
Method: FIGS. 17A and 17B. 4×4MyDI is metabolically stable in comparison to the linear MyDI peptide. 4×4MyDI vs. linear MyDI heptapeptide were incubated independently in either human plasma […] or human plasma supplemented with Brush Border Membrane Vesicles (BBMV, 18B). At various time points the solution was sampled and the amount of remaining compound was determined by quantitative HPLC.
Peptide backbone cyclization confers metabolic stability on peptides that are inherently susceptible to degradation by proteases. […] The stability of the compounds was then tested in plasma enriched with Brush Border Membrane Vesicles (BBMV). This system models the degradative conditions of the intestine.

[6] = test system: MOG35-55/CFA induced EAE; experiment: MOG35-55/CFA induced EAE model of multiple sclerosis; type: in vivo, mice
Method: FIG. 2. MIP treatment reduces severity of EAE. Mice were immunized with MOG35-55/CFA with PTX administration at day 0 and at 48 h. Groups of mice were treated with MIP (SEQ ID NO: 1, squares) or PBS (triangles) and mean clinical score was calculated.
FIG. 8. 4×4MyDI lowers disease in mouse EAE model. Mice were immunized with MOG35-55/CFA with PTX administration at day 0 and at 48 h. Groups of mice were treated with 4×4MyDI (squares, n=7) or PBS as control (circles, n=4) from day 0, three times a week.
FIG. 15. 4×4MyDI reduces severity of EAE. C57BL/6 mice were immunized with MOG35-55/CFA and administered pertussis toxin on day zero and after 48 h. Groups of mice were treated with 4×4MyDI at 4 mg/kg from day zero, three times a week, for a total of 9 treatments (squares, n=7) or an identical volume of PBS as control, using the same schedule of administration (circles, n=7). […] Clinical disease was scored daily. ***P<0.0001, 2-way ANOVA.
Effective peptides are examined for treatment of mice with EAE (the animal model of MS) applying several disease models. One model is described in Owens T. and Sriram S. Neurologic Clinics (1995) 13(1):51-73. In this model, C57B1 mice are immunized with the MOG protein in adjuvant and the onset of paralysis which appears 10-14 days following the induction, is evaluated daily. Two groups of animals are treated with two doses of the peptide administered orally by cannula on a daily basis, from the day of EAE-induction. One month after the disease onset, the animals are sacrificed and their brains and spinal cords are processed for histopathological analysis (performed by a blinded for the treatment arm, neuropathologist). This includes the evaluation of the number of inflammatory infiltrates and the number of cells per infiltrate, the degree of demyelination and of axonal damage. Another EAE model for MS which can be used for the compounds of the present invention and for identifying additional Myd88 inhibitors is described in Prinz et al 2006, J Clin Investigation, 116, 2 456-464, and Cohen et al 2010, J Immunol 184(1):212-21). In this model, C57B1 mice are immunized with MOG35-55 peptide ([…], SEQ ID NO: 4) emulsified in complete Freund's adjuvant (CFA) and pertussis toxin is administered systemically at the time of immunization and 48 h later. Mice are treated with the Myd88 inhibitor systemically and the mice are followed for development of ascending paralysis which typically begins on day 8-10 following immunization.
The effect of MIP administration on the clinical outcome of MOG35-55/CFA induced EAE was tested. […]
Following bioactivity characterization in vitro, the lead compound was evaluated for efficacy using the in vivo murine MOG35-55-induced EAE model of multiple sclerosis. […]

T1 sequence (Q99836 151-296): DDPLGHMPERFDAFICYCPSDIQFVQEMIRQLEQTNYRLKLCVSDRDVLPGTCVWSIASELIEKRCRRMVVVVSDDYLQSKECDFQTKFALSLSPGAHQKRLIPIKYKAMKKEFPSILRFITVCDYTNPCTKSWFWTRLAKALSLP

CC(C)C[C@@H]1NC(=O)[C@H](C(C)C)NC(=O)[C@H](CC(=O)O)NC(=O)[C@H](CCCNC(=N)N)NC(=O)CN(C(=O)[C@@H](N)Cc2c[nH]c3ccccc23)CCCCNC(=O)NCCCCN(CC(=O)NCC(=O)N[C@H](C(N)=O)[C@@H](C)O)C1=O [4×4MyDI] (H-W[Nlys]RDVL[Nlys]GT-NH2; linker 2-7 via CO; N-terminus assumed)
inhibition of binding of the biotinylated peptide to the MyD88 TIR domain [1]: competitively inhibited
inhibition of TNFα production [2]: outperformed the 6-carbon bridge peptide
passive diffusion through a lipid layer (Papp PAMPA) [3]: does not diffuse well through a lipid layer
Papp AB (apical to basolateral) [4]: higher than metoprolol
metabolised at 2 h [5]: 40%
EAE disease severity ([6]; 4 mg/Kg i.p. three times a week from day 0): significant reduction in disease severity; also recorded: significantly reduced disease severity
EAE disease severity ([6]; 4 mg/Kg i.p. three times a week from day 7): behaved similarly to the control group
EAE disease severity ([6]; 40 mg/Kg on day zero and day three only): reduced disease severity even further
survival ([6]; 4×4MyDI from day 0, three times a week, vs PBS): better rate of survival
